Assay results reported in patent US20240158393A1, “PYRIDONE COMPOUNDS AND METHODS OF USE” (Exelixis, Inc., priority 2021, published 2024).
pIC50: −log10 of the molar value.

molecular target: T1, Human Axl (Homo sapiens, UniProt P30530); assay: Human AXL kinase assay (33P radiometric / HTRF KinEase); assay type: biochemical; settings: protocols of Examples A-1 and/or A-2
T1 construct: Human AXL (residues 464-885)
T1 sequence (P30530 1-894 Q764R): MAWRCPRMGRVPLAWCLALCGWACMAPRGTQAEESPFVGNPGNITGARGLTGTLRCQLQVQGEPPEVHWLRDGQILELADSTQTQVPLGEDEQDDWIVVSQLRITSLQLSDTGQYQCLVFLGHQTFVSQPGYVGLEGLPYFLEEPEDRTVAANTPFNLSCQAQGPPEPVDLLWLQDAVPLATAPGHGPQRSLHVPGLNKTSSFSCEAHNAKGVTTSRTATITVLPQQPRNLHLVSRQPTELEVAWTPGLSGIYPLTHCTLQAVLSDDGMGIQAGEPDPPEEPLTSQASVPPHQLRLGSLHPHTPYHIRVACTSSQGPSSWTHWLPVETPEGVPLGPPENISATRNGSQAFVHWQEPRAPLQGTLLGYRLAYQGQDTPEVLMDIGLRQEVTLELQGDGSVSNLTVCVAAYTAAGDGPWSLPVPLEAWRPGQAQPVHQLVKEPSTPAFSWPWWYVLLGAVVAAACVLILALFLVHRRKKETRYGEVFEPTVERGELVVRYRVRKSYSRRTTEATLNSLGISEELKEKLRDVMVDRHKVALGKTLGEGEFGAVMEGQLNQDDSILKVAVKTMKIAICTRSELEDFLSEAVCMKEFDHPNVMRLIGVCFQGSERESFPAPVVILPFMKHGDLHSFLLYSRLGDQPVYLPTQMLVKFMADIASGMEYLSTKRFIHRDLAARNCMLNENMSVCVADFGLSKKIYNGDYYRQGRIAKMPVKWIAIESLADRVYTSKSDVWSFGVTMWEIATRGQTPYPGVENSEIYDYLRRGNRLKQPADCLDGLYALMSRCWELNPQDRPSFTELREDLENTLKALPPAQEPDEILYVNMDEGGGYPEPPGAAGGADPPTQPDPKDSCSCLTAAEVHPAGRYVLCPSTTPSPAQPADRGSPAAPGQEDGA

| SMILES | pIC50 |
| --- | --- |
| COc1cc2nccc(Oc3ccc(NC(=O)c4c5n(c(C)c(C6=CCCC6)c4=O)CCOC5)cc3)c2nc1OC [Compound 99, 7-(Cyclopenten-1-yl)-N-[4-[(6,7-dimethoxy-1,5-naphthyridin-4-yl)oxy]phenyl]-6-methyl-8-oxo-3,4-dihydro-1H-pyrido[2,1-c][1,4]oxazine-9-carboxamide] | ≥ 7.00 |
| COc1cc2nccc(Oc3ccc(NC(=O)c4c(C)c(Br)c(C)n(C5CCCC5)c4=O)cc3F)c2nc1OC [Compound 22, 5-Bromo-1-cyclopentyl-N-[4-[(6,7-dimethoxy-1,5-naphthyridin-4-yl)oxy]-3-fluorophenyl]-4,6-dimethyl-2-oxopyridine-3-carboxamide] | ≥ 7.00 |
| COc1ccc2nccc(Oc3ccc(NC(=O)c4cnc(C)c(C5=CCCCC5)c4O)cc3F)c2n1 [Compound 1-6, 5-(Cyclohexen-1-yl)-N-[3-fluoro-4-[(6-methoxy-1,5-naphthyridin-4-yl)oxy]phenyl]-4-hydroxy-6-methylpyridine-3-carboxamide] | ≥ 7.00 |
| COc1cc2nccc(Oc3ccc(NC(=O)c4c(C)n(C)c(C)c(C5CC5)c4=O)cc3)c2nc1OC [Compound 48, 5-Cyclopropyl-N-[4-[(6,7-dimethoxy-1,5-naphthyridin-4-yl)oxy]phenyl]-1,2,6-trimethyl-4-oxopyridine-3-carboxamide] | ≥ 7.00 |
| COc1cc2nccc(Oc3ccc(NC(=O)c4cnc(C)c(C5=CCCCC5)c4O)cc3)c2cc1OC [Compound 24, 5-(Cyclohexen-1-yl)-N-[4-(6,7-dimethoxyquinolin-4-yl)oxyphenyl]-4-hydroxy-6-methylpyridine-3-carboxamide] | ≥ 7.00 |
| COc1cc2nccc(Oc3ccc(NC(=O)c4c(C)nc(C)c(C(=O)NC(C)C)c4O)cc3F)c2nc1OC [Compound 94, 3-N-[4-[(6,7-Dimethoxy-1,5-naphthyridin-4-yl)oxy]-3-fluorophenyl]-4-hydroxy-2,6-dimethyl-5-N-propan-2-ylpyridine-3,5-dicarboxamide] | ≥ 7.00 |
| COc1cc2nccc(Oc3ccc(NC(=O)c4cnc(C)c(/C=C/C5CC5)c4O)cc3F)c2nc1OC [Compound 26, 5-[(E)-2-Cyclopropylethenyl]-N-[4-[(6,7-dimethoxy-1,5-naphthyridin-4-yl)oxy]-3-fluorophenyl]-4-hydroxy-6-methylpyridine-3-carboxamide] | ≥ 7.00 |
| COc1cc2nccc(Oc3ccc(NC(=O)c4c(C)cc(C)n(C5=CCCC5)c4=O)cc3F)c2nc1OC [Compound 14, 1-(Cyclopenten-1-yl)-N-[4-[(6,7-dimethoxy-1,5-naphthyridin-4-yl)oxy]-3-fluorophenyl]-4,6-dimethyl-2-oxopyridine-3-carboxamide] | ≥ 7.00 |
| COc1cc2nccc(Oc3ccc(NC(=O)c4c(C)n(C)c(C)c(/C=C/C(C)(C)C)c4=O)cc3F)c2nc1OC [Compound 49, N-[4-[(6,7-Dimethoxy-1,5-naphthyridin-4-yl)oxy]-3-fluorophenyl]-5-[(E)-3,3-dimethylbut-1-enyl]-1,2,6-trimethyl-4-oxopyridine-3-carboxamide] | ≥ 7.00 |
| COc1cc2nccc(Oc3ccc(NC(=O)c4c(C)nc(C)c(C#N)c4O)cc3F)c2nc1OC [Compound 87, 5-Cyano-N-[4-[(6,7-dimethoxy-1,5-naphthyridin-4-yl)oxy]-3-fluorophenyl]-4-hydroxy-2,6-dimethylpyridine-3-carboxamide] | < 6.52 |
| COc1cc2nccc(Oc3ccc(NC(=O)c4c(C)n(C)c(C)c(N5CCCC5)c4=O)cc3F)c2nc1OC [Compound 89, N-[4-[(6,7-Dimethoxy-1,5-naphthyridin-4-yl)oxy]-3-fluorophenyl]-1,2,6-trimethyl-4-oxo-5-pyrrolidin-1-ylpyridine-3-carboxamide] | ≥ 7.00 |
| COc1cc2nccc(Oc3ccc(NC(=O)c4cnc(C)c(/C=C/CC(C)C)c4O)cc3F)c2cc1OC [Compound 29, N-[4-(6,7-Dimethoxyquinolin-4-yl)oxy-3-fluorophenyl]-4-hydroxy-6-methyl-5-[(E)-4-methylpent-1-enyl]pyridine-3-carboxamide] | ≥ 7.00 |
| COc1cc2nccc(Oc3cc(F)c(NC(=O)c4c(C)nc(C)c(C(C)C)c4O)cc3F)c2nc1OC [Compound 10, N-[4-[(6,7-Dimethoxy-1,5-naphthyridin-4-yl)oxy]-2,5-difluorophenyl]-4-hydroxy-2,6-dimethyl-5-propan-2-ylpyridine-3-carboxamide] | ≥ 7.00 |
| COCCOc1cc2nccc(Oc3ccc(NC(=O)c4cnc(C)c(/C=C/C(C)(C)C)c4O)cc3F)c2nc1OC [Compound 40, 5-[(E)-3,3-Dimethylbut-1-enyl]-N-[3-fluoro-4-[[6-methoxy-7-(2-methoxyethoxy)-1,5-naphthyridin-4-yl]oxy]phenyl]-4-hydroxy-6-methylpyridine-3-carboxamide] | ≥ 7.00 |
| COCCOc1cc2nccc(Oc3cc(F)c(NC(=O)c4c(C)nc(C)c(C(N)=O)c4O)cc3F)c2nc1OC [Compound 86, 3-N-[2,5-Difluoro-4-[[6-methoxy-7-(2-methoxyethoxy)-1,5-naphthyridin-4-yl]oxy]phenyl]-4-hydroxy-2,6-dimethylpyridine-3,5-dicarboxamide] | < 6.52 |
| COc1cc2nccc(Oc3ccc(NC(=O)c4c(C)ccn(C(C)C)c4=O)cc3F)c2nc1OC [Compound 38, N-[4-[(6,7-Dimethoxy-1,5-naphthyridin-4-yl)oxy]-3-fluorophenyl]-4-methyl-2-oxo-1-propan-2-ylpyridine-3-carboxamide] | 6.52 to 7.00 |
| COc1cc2nccc(Oc3ccc(NC(=O)c4cnc(C)c(/C=C/C(C)(C)C)c4O)cc3F)c2nc1OC [Compound 27, N-[4-[(6,7-Dimethoxy-1,5-naphthyridin-4-yl)oxy]-3-fluorophenyl]-5-[(E)-3,3-dimethylbut-1-enyl]-4-hydroxy-6-methylpyridine-3-carboxamide] | ≥ 7.00 |
| COc1cc2nccc(Oc3ccc(NC(=O)c4c(C)n(C)c(C)c(C#N)c4=O)cc3)c2nc1OC [Compound 82, 5-Cyano-N-[4-[(6,7-dimethoxy-1,5-naphthyridin-4-yl)oxy]phenyl]-1,2,6-trimethyl-4-oxopyridine-3-carboxamide] | < 6.52 |
| COc1cc2nccc(Oc3ccc(NC(=O)c4c(C)nc(C)c(C(N)=O)c4O)cc3F)c2nc1OC [Compound 84, 3-N-[4-[(6,7-Dimethoxy-1,5-naphthyridin-4-yl)oxy]-3-fluorophenyl]-4-hydroxy-2,6-dimethylpyridine-3,5-dicarboxamide] | < 6.52 |
| COc1ccc2nccc(Oc3ccc(NC(=O)c4cnc(C)c(C5=CCOCC5)c4O)cc3F)c2n1 [Compound 1-5, 5-(3,6-Dihydro-2H-pyran-4-yl)-N-[3-fluoro-4-[(6-methoxy-1,5-naphthyridin-4-yl)oxy]phenyl]-4-hydroxy-6-methylpyridine-3-carboxamide] | ≥ 7.00 |
| COCCOc1cc2nccc(Oc3ccc(NC(=O)c4cnc(C)c(C5=CCCCC5)c4O)cc3F)c2nc1OC [Compound 34, 5-(Cyclohexen-1-yl)-N-[3-fluoro-4-[[6-methoxy-7-(2-methoxyethoxy)-1,5-naphthyridin-4-yl]oxy]phenyl]-4-hydroxy-6-methylpyridine-3-carboxamide] | ≥ 7.00 |
| COc1cc2nccc(Oc3ccc(NC(=O)c4c(C)nc(C)c(C(N)=O)c4O)cc3)c2nc1OC [Compound 85, 3-N-[4-[(6,7-Dimethoxy-1,5-naphthyridin-4-yl)oxy]phenyl]-4-hydroxy-2,6-dimethylpyridine-3,5-dicarboxamide] | < 6.52 |
| COc1cc2nccc(Oc3ccc(NC(=O)c4cnc(C)c(C5=CCCCC5)c4O)cc3F)c2cc1OC [Compound 23, 5-(Cyclohexen-1-yl)-N-[4-(6,7-dimethoxyquinolin-4-yl)oxy-3-fluorophenyl]-4-hydroxy-6-methylpyridine-3-carboxamide] | ≥ 7.00 |
| CNC(=O)c1c(C)nc(C)c(C(=O)Nc2ccc(Oc3ccnc4cc(OC)c(OC)nc34)c(F)c2)c1O [Compound 97, 3-N-[4-[(6,7-Dimethoxy-1,5-naphthyridin-4-yl)oxy]-3-fluorophenyl]-4-hydroxy-5-N,2,6-trimethylpyridine-3,5-dicarboxamide] | ≥ 7.00 |
| COc1cc2nccc(Oc3ccc(NC(=O)c4cn(CCF)c(C)c(C5CCCC5)c4=O)cc3F)c2nc1OC [Compound 13, 5-Cyclopentyl-N-[4-[(6,7-dimethoxy-1,5-naphthyridin-4-yl)oxy]-3-fluorophenyl]-1-(2-fluoroethyl)-6-methyl-4-oxopyridine-3-carboxamide] | ≥ 7.00 |
| COc1cc2nccc(Oc3ccc(NC(=O)c4c5n(c(C)c(C6=CCCCC6)c4=O)CCOC5)cc3)c2nc1OC [Compound 100, 7-(Cyclohexen-1-yl)-N-[4-[(6,7-dimethoxy-1,5-naphthyridin-4-yl)oxy]phenyl]-6-methyl-8-oxo-3,4-dihydro-1H-pyrido[2,1-c][1,4]oxazine-9-carboxamide] | ≥ 7.00 |
